Experimental findings from article PMC6865181, “Role of L-Type Amino Acid Transporter 1 (LAT1) for the Selective Cytotoxicity of Sesamol in Human Melanoma Cells” (Molecules, 2019) are described below.

Molecules are shown by their SMILES. Marks after values point to notes of the source that are not given here.

For series [1], the target named is T1, LAT1 (Homo sapiens, UniProt Q01650). In words: LAT1 function: competitive uptake of L-dopa in SK-MEL-2 cells. It is filed as cell-based. The note with it: for L-Dopa Distribution Volume in presence of the compound: competitor at the concentration printed in the row; for Percent Inhibition of L-Dopa Distribution Volume: competitor (BCH, L-tyrosine, sesamol 1 mM; L-leucine, L-alanine 2 mM; melphalan 0.05 mM). The protocol: (§1) SK-MEL-2 and Vero cells were seeded separately into 24-well plates at 2 × 10^5 cells/well for 24 h. The media was removed, and the cells pre-incubated with HBSS pH 7.4 for 10 min. The cells were used for the following experiments.
T1 sequence (Q01650 whole entry): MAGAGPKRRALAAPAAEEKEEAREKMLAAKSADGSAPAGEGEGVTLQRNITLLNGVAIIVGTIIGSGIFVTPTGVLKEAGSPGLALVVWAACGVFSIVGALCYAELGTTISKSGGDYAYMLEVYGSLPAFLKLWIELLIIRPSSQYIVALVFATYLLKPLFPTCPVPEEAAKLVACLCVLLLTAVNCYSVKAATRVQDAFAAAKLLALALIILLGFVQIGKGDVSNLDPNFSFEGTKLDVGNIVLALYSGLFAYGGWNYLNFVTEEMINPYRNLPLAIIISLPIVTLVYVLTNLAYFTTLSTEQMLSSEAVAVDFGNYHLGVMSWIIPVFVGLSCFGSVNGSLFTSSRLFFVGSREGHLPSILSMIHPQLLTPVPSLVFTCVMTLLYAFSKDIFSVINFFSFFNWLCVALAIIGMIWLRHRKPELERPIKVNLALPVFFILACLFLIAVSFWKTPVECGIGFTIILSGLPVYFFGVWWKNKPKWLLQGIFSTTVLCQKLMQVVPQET
T1 sequence (P08195 102-630 partner): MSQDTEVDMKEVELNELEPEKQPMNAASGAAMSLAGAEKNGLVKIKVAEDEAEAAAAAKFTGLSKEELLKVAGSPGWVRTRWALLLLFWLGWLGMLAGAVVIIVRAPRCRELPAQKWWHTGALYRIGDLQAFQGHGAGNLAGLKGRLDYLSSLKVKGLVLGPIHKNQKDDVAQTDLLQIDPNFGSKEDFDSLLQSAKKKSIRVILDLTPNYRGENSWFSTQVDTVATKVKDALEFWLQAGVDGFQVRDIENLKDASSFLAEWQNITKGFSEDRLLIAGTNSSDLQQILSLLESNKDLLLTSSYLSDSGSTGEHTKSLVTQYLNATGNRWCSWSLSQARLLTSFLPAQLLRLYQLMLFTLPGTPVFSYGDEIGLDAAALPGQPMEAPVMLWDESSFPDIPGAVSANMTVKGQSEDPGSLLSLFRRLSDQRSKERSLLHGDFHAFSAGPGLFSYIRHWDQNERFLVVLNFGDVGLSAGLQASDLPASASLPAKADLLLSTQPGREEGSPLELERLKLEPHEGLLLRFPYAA
(§2) Sesamol was also investigated for its affinity to LAT1. […] Competitive uptake was performed for 10 min then the cells were washed twice with ice-cold PBS. The L-dopa was solubilized by 0.1 M HCl and the cell lysate (25 µL) was pipetted for protein determination. […] Intracellular and extracellular L-dopa was quantified by the HPLC assay. The L-dopa uptake was represented as the distribution volume of L-dopa in a cell to media ratio (C/M ratio) as calculated in Section 4.3.1.
The analysis was based on a BDS Hypersil C-18 column, (4.6 × 250 mm, 5 µm packing, Thermo Fisher Scientific, Waltham, MA, USA). The column temperature was set at 30 °C with a flow rate of 0.8 mL/min. The mobile phase for sesamol quantification was 70% methanol in water, vs. 20% methanol in water for L-dopa. […] The validated sesamol quantification conducted using sesamol spiked cell lysate with high selectivity and clear separation from the endogenous cell lysate as previously reported. The % bias and % precision was determined within and between days, each was maintained below 6%.

The test system of series [2] is LAT1. In words: LAT1 function: competitive uptake of L-dopa in Vero cells. The series is classed as cell-based, African green monkey. To be noted: L-dopa 0.1 mM, 10 min; for Percent Inhibition of L-Dopa Distribution Volume: competitor (BCH, L-tyrosine, sesamol 1 mM; L-leucine, L-alanine 2 mM; melphalan 0.05 mM); for L-Dopa Distribution Volume in presence of the compound: competitor at the concentration printed in the row. The protocol: as §1, §2
(§3) Quantitative analysis of sesamol and L-dopa were performed using a Shimadzu HPLC (LC-2030C-3D) with a UV photodiode array detector (DAD) (Kyoto, Japan). The analysis was based on a BDS Hypersil C-18 column, (4.6 × 250 mm, 5 µm packing, Thermo Fisher Scientific, Waltham, MA, USA). The column temperature was set at 30 °C with a flow rate of 0.8 mL/min. The mobile phase for sesamol quantification was 70% methanol in water, vs. 20% methanol in water for L-dopa. The respective detection wavelength and elution time for sesamol and L-dopa was 297 nm and 280 nm and 4.2 and 4.5 min. The validated sesamol quantification conducted using sesamol spiked cell lysate with high selectivity and clear separation from the endogenous cell lysate as previously reported. The % bias and % precision was determined within and between days, each was maintained below 6%.

The target in series [3] is T1, LAT1. Description: cell-based. To be noted: for Sesamol Distribution Volume in presence of the compound / Percent Inhibition of Sesamol Distribution Volume: SK-MEL-2, sesamol 0.1 mM, 10 min; for Sesamol Distribution Volume in presence of the compound: competitor at the concentration printed in the row; for Percent Inhibition of Sesamol Distribution Volume: competitor at the concentration (BCH, L-tyrosine, L-dopa 1 mM; L-leucine, L-alanine 2 mM; melphalan 0.05 mM). The protocol: as §1
(§4) Competitive inhibition of uptake of sesamol was done in both SK-MEL-2 and the Vero cells. […] The cells were washed twice with ice-cold PBS, solubilized in methanol, and centrifuged at 2400× g, at 4 °C for 20 min. The precipitated protein was re-solubilized by 0.1 M NaOH prior to protein determination. The sesamol content was quantified using HPLC assay. The cellular uptake of sesamol was calculated as per the C/M ratio.
as §3

Series [4] concerns LAT1. To be noted: Vero cells, sesamol 0.1 mM, 10 min; for Percent Inhibition of Sesamol Distribution Volume: competitor at the concentration (BCH, L-tyrosine, L-dopa 1 mM; L-leucine, L-alanine 2 mM; melphalan 0.05 mM); for Sesamol Distribution Volume in presence of the compound: competitor at the concentration printed in the row. The protocol:
as §1, §4, §3

Series [5] has as its system SK-MEL-2 cells. Description: Antiproliferative effect, neutral red uptake assay, SK-MEL-2 cells. The series is classed as cell-based, human. As to the method:
(§5) The SK-MEL-2 and Vero cells (at 5 × 10^4 cells/well) were seeded separately into 96-well plates. After the cells were exposed to the tested compounds (200 µL) for 24 h, neutral red (50 µg/mL) (Sigma-Aldrich, St. Louis, MO, USA) was incorporated into the cells for 2 h. The cells were then washed with ice-cold PBS and lysed using 0.33% HCl in isopropanol. The absorbances of neutral red were measured at 540 nm with a reference wavelength of 660 nm using a UV-microplate reader (Perkin Elmer, Waltham, MA, USA). […] The selective index was calculated from the ratio of the IC50 of Vero and SK-MEL-2 cells.

The test system of series [6] is Vero cells. In words: Antiproliferative effect, neutral red uptake assay, Vero cells. The series is classed as cell-based, African green monkey. The protocol: as §5
Setting [7] is: SK-MEL-2, read-out: Percent Inhibition of L-Dopa Distribution Volume.
The mark [8] stands for this setting: SK-MEL-2, L-dopa 0.1 mM, 10 min.
[9] abbreviates: SK-MEL-2, read-out: Percent Inhibition of Sesamol Distribution Volume.

Consider `N[C@@H](Cc1ccc(N(CCCl)CCCl)cc1)C(=O)O` [Melphalan, melphalan], for which the figures for the inhibition at 50 µM in series [1] (setting [7]) and in series [3] (setting [9]) were 47% and 60%, respectively. Further, the “L-Dopa Distribution Volume in presence of the compound” value in series [1] (setting [8]) was 196.6 ± 20.3 µL/mg Protein; in series [2], 95.5 ± 11.2 µL/mg Protein. Besides, the “Percent Inhibition of L-Dopa Distribution Volume” value in series [2] was found to be 39%. Further, the “Sesamol Distribution Volume in presence of the compound” value in series [3] stood at 9.4 ± 0.7 µL/mg Protein; in series [4] it was 11.7 ± 0.7 µL/mg Protein. The “Percent Inhibition of Sesamol Distribution Volume” value in series [4] worked out at 35%. For the same compound, the concentration for half-maximal inhibition (IC50) in series [5] (Homo sapiens, SK-MEL-2, 24 h, read-out: IC50 (cell viability)) amounted to 100 µM; in series [6] (Chlorocebus sabaeus, Vero, 24 h, read-out: IC50 (cell viability)) it was 600 ± 300 µM. The “Selective Index” value in series [5] (ratio of the IC50 of Vero and SK-MEL-2 cells) is reported as 6.0.

Consider `N[C@@H](Cc1ccc(O)cc1)C(=O)O` [L-tyrosine], for which, in series [1] (setting [8]), the “Percent Inhibition of L-Dopa Distribution Volume” value is recorded as 72%. Moreover, in series [2], the “Percent Inhibition of L-Dopa Distribution Volume” value worked out at 69% and the “L-Dopa Distribution Volume in presence of the compound” value was 48.7 ± 11.0 µL/mg Protein. In series [3], the “Percent Inhibition of Sesamol Distribution Volume” value was determined as 75% and the “Sesamol Distribution Volume in presence of the compound” value came out at 5.8 ± 0.2 µL/mg Protein. The “Percent Inhibition of Sesamol Distribution Volume” value in series [4] is reported as 41%.

As for `NC1(C(=O)O)CC2CCC1C2` (stereo not drawn) [BCH, 2-Amino-2-norbornanecarboxylic acid], the figures for the “Percent Inhibition of L-Dopa Distribution Volume” value in series [1] (setting [8]) and in series [2] were 82% and 69%, respectively. In addition, the “L-Dopa Distribution Volume in presence of the compound” value in series [1] (setting [8]) turned out to be 67.3 ± 14.0 µL/mg Protein; in series [2] it was 47.9 ± 3.7 µL/mg Protein. In addition, the “Percent Inhibition of Sesamol Distribution Volume” value in series [3] amounted to 55%; in series [4], 42%. Further, the “Sesamol Distribution Volume in presence of the compound” value worked out at 10.3 ± 0.9 µL/mg Protein in series [3] and 10.4 ± 1.9 µL/mg Protein in series [4]. Further, the “cytotoxicity compared to untreated cells” value is “no cytotoxicity” in series [5] (SK-MEL-2 cells, BCH 1 mM) and “no cytotoxicity” in series [6] (Vero cells, BCH 1 mM).

Consider `C[C@H](N)C(=O)O` [L-Alanine, L-alanine], for which the “L-Dopa Distribution Volume in presence of the compound” value turned out to be 121.2 ± 3.6 µL/mg Protein in series [1] (setting [8]) and 101.3 ± 4.0 µL/mg Protein in series [2]. Besides, the inhibition at 2000 µM in series [1] (setting [7]) is 67%; in series [3] (setting [9]), 44%. In addition, the “Percent Inhibition of L-Dopa Distribution Volume” value in series [2] was 35%. Further, the “Sesamol Distribution Volume in presence of the compound” value was determined as 13.1 ± 0.3 µL/mg Protein in series [3] and 13.3 ± 2.0 µL/mg Protein in series [4]. For the same compound, the “Percent Inhibition of Sesamol Distribution Volume” value in series [4] stood at 25%.

Regarding `N[C@@H](Cc1ccc(O)c(O)c1)C(=O)O` [L-Dopa, L-dopa], the “L-Dopa Distribution Volume, control (no competitor)” value in series [1] (SK-MEL-2, L-dopa 0.1 mM, 10 min, 37 °C) is recorded as 0% (370.6 ± 13.0)^a µL/mg Protein; in series [2] (37 °C) it was 0% (155.6 ± 17.8)^a µL/mg Protein. Besides, the inhibition at 1000 µM in series [3] (setting [9]) is 68%. For the same compound, the “Sesamol Distribution Volume in presence of the compound” value in series [3] is recorded as 7.4 ± 0.8 µL/mg Protein. The “Percent Inhibition of Sesamol Distribution Volume” value in series [4] is 40% (10.8 ± 2.0)^b,c.

For the compound `CC(C)C[C@H](N)C(=O)O` [L-leucine, L-Leucine], in series [1] (setting [8]), the “Percent Inhibition of L-Dopa Distribution Volume” value came to 75% and the “L-Dopa Distribution Volume in presence of the compound” value is on record as 94.1 ± 13.5 µL/mg Protein. In series [2], the “Percent Inhibition of L-Dopa Distribution Volume” value is reported as 75% and the “L-Dopa Distribution Volume in presence of the compound” value is on record as 39.1 ± 2.3 µL/mg Protein. In series [3], the “Percent Inhibition of Sesamol Distribution Volume” value was 50% and the “Sesamol Distribution Volume in presence of the compound” value worked out at 11.7 ± 0.7 µL/mg Protein. In addition, in series [4], the “Percent Inhibition of Sesamol Distribution Volume” value was determined as 23% and the “Sesamol Distribution Volume in presence of the compound” value came out at 13.8 ± 1.4 µL/mg Protein.
